Reference: patent US11331299B2, “Medicinal use of serrulatane diterpenes” (The University of Sydney, priority 2016, dated 2022)
Like-named read-outs stand apart in the source and are kept apart here.

Tested on: 280 human cancer cell lines
Test: OncoPanel cell proliferation assay (10-day)
Assay type: cell-based
Settings: Homo sapiens; for IC50: read-out: Cell Count IC50; for EC50: read-out: Cell Count EC50; for GI50: read-out: Cell Count GI50
[1] = SJRH30, SJRH30, Soft Tissue - Sarcoma
[2] = SJSA-1, SJSA1, Soft Tissue - Osteosarcoma
[3] = SK-LMS-1, SK-LMS-1, Soft Tissue - Sarcoma
[4] = SK-MEL3, SK-MEL-3, Skin (Melanoma)
[5] = SK-MEL-1, SK-MEL-1, Skin (Melanoma)
[6] = SK-MEL-28, SK-MEL-28, Skin (Melanoma)
[7] = SK-OV-3, SKOV3, Female GU - Ovary
[8] = SK-UT-1, SK-UT-1, Soft Tissue - Sarcoma
[9] = SW579, SW579, Endocrine - Thyroid
[10] = SW684, SW684, Soft Tissue - Sarcoma

With `CC(C)=CCC[C@H](C)[C@@H]1CC[C@@H](C)c2c1cc(C)c(O)c2O` [Compound 4, 7,8-dihydroxyserrulat-14-ene] the IC50 (SCaBER, Bladder) was 16.9 µM, the EC50 (SH-4, Skin (Melanoma)) was 11.6 µM and the GI50 (SH-4, Skin (Melanoma)) was 11.5 µM. For the same molecule, the IC50 (SH-4, Skin (Melanoma)) was 11.6 µM, the EC50 (SHP77, SHP-77, Lung - SCLC) was 6.83 µM and the GI50 (SHP77, SHP-77, Lung - SCLC) was 6.75 µM. For the same molecule, the IC50 (SHP77, SHP-77, Lung - SCLC) was 6.83 µM, the EC50 [1] was 3.68 µM and the GI50 [1] was 3.68 µM. The IC50 [1] was 3.68 µM, the EC50 [2] was 7.45 µM and the GI50 [2] was 7.45 µM. It also gave an IC50 [2] of 7.45 µM, an EC50 (SK-BR-3, SK-BR-3, Breast) of 10.3 µM and a GI50 (SK-BR-3, SK-BR-3, Breast) of 9.97 µM. For the same molecule, the IC50 (SK-BR-3, SK-BR-3, Breast) was 10.3 µM, the EC50 [3] was 9.04 µM and the GI50 [3] was 8.98 µM. For the same molecule, the IC50 [3] was 9.04 µM, the EC50 [4] was > 30 µM and the GI50 [4] was > 30 µM. The IC50 [4] was > 30 µM, the EC50 [5] was > 30 µM and the GI50 [5] was > 30 µM. For the same molecule, the IC50 [5] was > 30 µM, the EC50 [6] was 11.2 µM and the GI50 [6] was 11.1 µM. It also gave an IC50 [6] of 11.2 µM, an EC50 (SK-MES-1, SKMES1, Lung - NSCLC) of 11.6 µM and a GI50 (SK-MES-1, SKMES1, Lung - NSCLC) of 11.5 µM. The IC50 (SK-MES-1, SKMES1, Lung - NSCLC) was 11.6 µM, the EC50 (SK-N-AS, CNS - Neuroblastoma) was 5.86 µM and the GI50 (SK-N-AS, CNS - Neuroblastoma) was 5.75 µM. The IC50 (SK-N-AS, CNS - Neuroblastoma) was 5.86 µM, the EC50 (SK-N-DZ, CNS - Neuroblastoma) was 11.9 µM and the GI50 (SK-N-DZ, CNS - Neuroblastoma) was 11.5 µM. The IC50 (SK-N-DZ, CNS - Neuroblastoma) was 11.9 µM, the EC50 (SK-N-FI, CNS - Neuroblastoma) was 21.5 µM and the GI50 (SK-N-FI, CNS - Neuroblastoma) was 20.6 µM. It also gave an IC50 (SK-N-FI, CNS - Neuroblastoma) of 21.5 µM, an EC50 [7] of 8.43 µM and a GI50 [7] of 8.33 µM. It also gave an IC50 [7] of 8.43 µM, an EC50 (SK-PN-DW, Stomach) of 4.91 µM and a GI50 (SK-PN-DW, Stomach) of 4.88 µM. For the same molecule, the IC50 (SK-PN-DW, Stomach) was 4.91 µM, the EC50 [8] was 5.49 µM and the GI50 [8] was 5.46 µM. It also gave an IC50 [8] of 5.49 µM, an EC50 (SKO-007, SKO-007, Myeloma) of 4.66 µM and a GI50 (SKO-007, SKO-007, Myeloma) of 4.55 µM. It also gave an IC50 (SKO-007, SKO-007, Myeloma) of 4.71 µM, an EC50 (SNB-19, SNB-19, CNS - Glioma) of 13 µM and a GI50 (SNB-19, SNB-19, CNS - Glioma) of 12.9 µM. It also gave an IC50 (SNB-19, SNB-19, CNS - Glioma) of 13 µM, an EC50 (SNU1, SNU-1, Stomach) of 6.99 µM and a GI50 (SNU1, SNU-1, Stomach) of 6.98 µM. The IC50 (SNU1, SNU-1, Stomach) was 6.99 µM, the EC50 (SNU-5, SNU-5, Stomach) was 14.4 µM and the GI50 (SNU-5, SNU-5, Stomach) was 14.2 µM. The IC50 (SNU-5, SNU-5, Stomach) was 14.4 µM, the EC50 (SNU-16, SNU-16, Stomach) was 11 µM and the GI50 (SNU-16, SNU-16, Stomach) was 11 µM. It also gave an IC50 (SNU-16, SNU-16, Stomach) of 11 µM, an EC50 (SNU-423, SNU-423, Liver) of 9.3 µM and a GI50 (SNU-423, SNU-423, Liver) of 9.28 µM. It also gave an IC50 (SNU-423, SNU-423, Liver) of 9.31 µM, an EC50 (SR, Lymphoma) of 4.39 µM and a GI50 (SR, Lymphoma) of 4.39 µM. It also gave an IC50 (SR, Lymphoma) of 4.39 µM, an EC50 (ST486, ST486, Lymphoma) of 2.66 µM and a GI50 (ST486, ST486, Lymphoma) of 2.65 µM. The IC50 (ST486, ST486, Lymphoma) was 2.66 µM, the EC50 (SU-DHL10, SU-DHL-10, Lymphoma) was 7.68 µM and the GI50 (SU-DHL10, SU-DHL-10, Lymphoma) was 7.67 µM. The IC50 (SU-DHL10, SU-DHL-10, Lymphoma) was 7.68 µM, the EC50 (SU-DHL-4, SU-DHL-4, Lymphoma) was 5.74 µM and the GI50 (SU-DHL-4, SU-DHL-4, Lymphoma) was 5.74 µM. For the same molecule, the IC50 (SU-DHL-4, SU-DHL-4, Lymphoma) was 5.74 µM, the EC50 (SU-DHL-5, SU-DHL-5, Lymphoma) was 3.8 µM and the GI50 (SU-DHL-5, SU-DHL-5, Lymphoma) was 3.8 µM. It also gave an IC50 (SU-DHL-5, SU-DHL-5, Lymphoma) of 3.8 µM, an EC50 (SU-DHL-8, SU-DHL-8, Lymphoma) of 3.9 µM and a GI50 (SU-DHL-8, SU-DHL-8, Lymphoma) of 3.9 µM. The IC50 (SU-DHL-8, SU-DHL-8, Lymphoma) was 3.9 µM, the EC50 (SU.86.86, SU.86.86, Pancreas) was > 30 µM and the GI50 (SU.86.86, SU.86.86, Pancreas) was > 30 µM. The IC50 (SU.86.86, SU.86.86, Pancreas) was > 30 µM, the EC50 (SUP-T1, SUP-T1, Lymphoma) was 6.51 µM and the GI50 (SUP-T1, SUP-T1, Lymphoma) was 6.49 µM. For the same molecule, the IC50 (SUP-T1, SUP-T1, Lymphoma) was 6.51 µM, the EC50 (SW48, SW48, Colon) was 13 µM and the GI50 (SW48, SW48, Colon) was 13 µM. It also gave an IC50 (SW48, SW48, Colon) of 13 µM, an EC50 [9] of 11 µM and a GI50 [9] of 11 µM. The IC50 [9] was 11 µM, the EC50 [10] was > 30 µM and the GI50 [10] was > 30 µM. For the same molecule, the IC50 [10] was > 30 µM and the EC50 (SW837, SW837, Colon) was 18.9 µM.
